Several values for one entry are separate records, joined by “and”; a condition that tells them apart may be missing. Identical values can stand only once. Square brackets hold non-standard residues; d marks the D form. NMeV = CN[C@H](C(=O)O)C(C)C
Legend:
[1] = tested on: gynecologic malignancies; design: method as in PMID 18760451, PMID 22446624; settings: ref [66],[67], cited from earlier work
[2] = tested on: mice; design: method as in PMID 12183425; settings: ref [65]; cited from earlier work
[3] = tested on: GBM models; settings: cited from earlier work
From the text: (§1) Since the identification of the integrin-binding domain (RGD) in fibronectin/vitronectin, RGD-containing peptides and derived compounds have been developed. […] In contrast, other trials have not shown cilengitide to be better in terms of progression-free survival or overall survival than the standard treatment ...

[4] = tested on: patients with advanced glioblastoma; settings: cited from earlier work
From the text: as §1

[5] = tested on: aggressive and recurrent meningiomas; settings: combination with an mTOR inhibitor; ref [72]; cited from earlier work
From the text: As far as translation into clinics is concerned, it is worth mentioning that small peptides, such as uPAcyclin, are generally non-immunogenic and cost-effective to produce, and some of them have already entered clinical trials. […] Nevertheless, small peptides need to reach molecular targets to accomplish their effects. Thus, they often depend on physiological transports and ...

[6] = tested on: U87-MG cells (αV integrin); experiment: FITC-uPAcyclin receptor binding/competition, U87-MG; design: species or system human; settings: vitronectin 200 µM, anti-αV 5 µg/mL, anti-α2 1 µg/mL
Description: The U87-MG, U251-MG, and U138-MG cell lines were harvested and acid-treated, as described. Then, 2 × 10^6 cells/sample were exposed for 30 min at 4 °C to uPAcyclin or S-uPAcyclin at the indicated concentrations, or with the following antibodies: VNR147 monoclonal anti-αV integrin (Chemicon Int. Inc., Temecula, CA, USA), polyclonal anti-αV (Millipore, Burlington, MA, USA), monoclonal anti-α2 (Chemicon Int. Inc., Temecula, CA, USA), polyclonal anti-actin (Sigma-Aldrich, St. Louis, MO, USA), monoclonal anti-GAPDH (Abcam, Cambridge, UK), and purified vitronectin (VN, Corning, Glendale, AZ, USA). The cells were subsequently incubated with 50 nM FITC-uPAcyclin for 2 h at 4 °C, as described. At the end of incubation, the cells were washed and the cell surface-associated fluorescence was determined using a fluorimeter (VICTOR^TM X3-PerkinElmer, Waltham, MA, USA). All binding assays were performed three times, with duplicate samples, and analyzed as described in Section 2.11.
Figure 2 αV expression of U87-MG, U251-MG, and U138-MG GBM cells and specific binding of FITC-uPAcyclin. (A) U87-MG, U251-MG, U138-MG, HEK-293, and HEK-293/αV total cell lysates were subjected to Western blotting and probed using polyclonal anti-αV or polyclonal anti-actin as loading control. (B) A total of 2 × 10^6 U87-MG, U251-MG, U138-MG, HEK-293/αV, or HEK-293 cells were pre-incubated for 30 min at 4 °C with 500 nM uPAcyclin and further exposed to 50 nM FITC-uPAcyclin for 2 h at 4 °C. At the end of the incubation, the unbound material was washed and cell-associated FITC-uPAcyclin was quantitated by a fluorimeter. The net value of cell-surface-associated fluorescence, corresponding to the specific binding, is shown. (C) A total of 2 × 10^6 U87-MG, U251-MG, and U138-MG cells were pre-incubated for 30 min at 4 °C with increasing concentrations of unlabeled uPAcyclin and then assayed for binding of FITC-uPAcyclin, for 2 h at 4 °C. Cell-surface-associated fluorescence, as percentage of the samples […], is shown. (D) U87-MG cells were pre-incubated with uPAcyclin (1 pM, 100 nM), scrambled uPAcyclin (S-uPAcyclin, 1 pM and 100 nM)), vitronectin (200 µM), anti-αv polyclonal (anti-αV Pclonal, 5 µg/mL) or monoclonal (anti-αV MoAb, 5 µg/mL) or anti-α2 monoclonal (anti-α2 MoAb, 1 µg/mL), polyclonal anti-actin, and monoclonal anti GAPDH. Then, cells were treated as in B (* p-value < 0.05; *** p-value < 0.001).

For Ac-K^136PSSPPEE^143-NH2 [Å6], the tolerability ([1]; phase I, gynecologic malignancies) is given as “well tolerated”, the disease progression ([1]; phase II) is given as “delayed disease progression in the treated individuals” and the “anti-angiogenetic and anti-metastatic activity” value [2] is given as “clearcut anti-angiogenetic and anti-metastatic activities in mice”.
In the case of “cilengitide: known αVβ3/αVβ5 integrin inhibitor (cyclo(RGD[dF][NMeV]); chains of the INN, looked up)”, the “effect in GBM models” value ([3]; ref [51]) is listed as “cytotoxic, anti-angiogenetic, and anti-invasive effect in GBM models”, the “tumor angiogenesis at lower doses” value ([3]; suggested reason for failure in GBM patients, ref [54]) is listed as “detrimental stimulation of tumor angiogenesis at lower doses” and the overall survival effect ([4]; patients with advanced glioblastoma, ref [52]) is listed as “seemed to suggest a positive effect on overall survival”. For the same substance, the “progression-free or overall survival vs standard treatments” value ([4]; ref [53]) was “have not shown cilengitide to be better in terms of progression-free survival or overall survival than the standard treatments”.
For octreotide, the efficacy and tolerability [5] is given as “effective and well tolerated”.
With “vitronectin: purified vitronectin (Corning)” the “competition with FITC-uPAcyclin binding, in words” value ([6]; U87-MG, S-uPAcyclin 1 pM and 100 nM) was “only at a high concentration” and the “FITC-uPAcyclin binding, single values” ([6]; T-test sheet, single replicates of all EXPTs) was 42 and 50 and 45 and 47.

— paper PMC10571957, “αV-Integrin-Dependent Inhibition of Glioblastoma Cell Migration, Invasion and Vasculogenic Mimicry by the uPAcyclin Decapeptide” (Cancers, 2023)
